# Target: α-Glucosidase (EC 3.2.1.20)
# Conditions: read-out: IC50 values ± SEM against α-glucosidase enzyme; pH 6.9, 37° C., 0.5 μM p-nitrophenyl α-D-glucopyranoside substrate, 250 units/mL enzyme, 50 mM sodium phosphate buffer with 100 mM NaCl
# From the text: The increments in absorption at 400 nm due to the hydrolysis of PNP-G by α-glucosidase were monitored continuously with a molecular devices spectrophotometer.
smiles,measurement,value
"CC(C)(O)[C@H]1CC[C@]2(C)[C@H]3CC[C@@H]4[C@@]5(C)CCCC(C)(C)[C@@H]5[C@@H](O)C[C@@]4(C)[C@]3(C)CC[C@@H]12 [Zeorin, 6,22-Hopanediol]",IC50,100 ± 0.3 µM

# Source: patent US7867989B2, “α-glucosidase inhibitors from lichens” (priority 2007, dated 2011)
